Here are results for 1 compound from paper PMC5356633, “Arctigenin functions as a selective agonist of estrogen receptor β to restrict mTORC1 activation and consequent Th17 differentiation” (Oncotarget, 2016).

For the experiment, the target named is T1, ERβ (estrogen receptor β) (Homo sapiens, UniProt Q92731).
T1 construct: gene ESR2; full-length ERβ
The experiment is described as follows: fluorescence polarization competition binding (PolarScreen ERβ Competitor Assay, Fluormone Tracer).

SMILES strings stand for the structures.

T1 sequence (Q92731 whole entry): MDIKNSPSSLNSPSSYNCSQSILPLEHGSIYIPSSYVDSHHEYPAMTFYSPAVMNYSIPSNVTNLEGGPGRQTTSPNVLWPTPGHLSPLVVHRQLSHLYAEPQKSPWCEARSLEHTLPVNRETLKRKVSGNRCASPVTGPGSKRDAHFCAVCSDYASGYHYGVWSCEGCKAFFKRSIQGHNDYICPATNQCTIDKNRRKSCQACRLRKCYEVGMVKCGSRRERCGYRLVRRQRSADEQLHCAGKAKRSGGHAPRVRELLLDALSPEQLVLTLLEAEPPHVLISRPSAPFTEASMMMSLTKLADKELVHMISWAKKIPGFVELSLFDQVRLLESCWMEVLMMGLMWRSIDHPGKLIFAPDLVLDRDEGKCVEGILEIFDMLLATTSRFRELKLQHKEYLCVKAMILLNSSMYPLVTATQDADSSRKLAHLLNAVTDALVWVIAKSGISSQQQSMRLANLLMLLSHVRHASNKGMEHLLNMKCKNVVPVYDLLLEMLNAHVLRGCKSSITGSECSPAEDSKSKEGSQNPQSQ

What is called IC50 is the concentration that gives 50% inhibition. The low end stands for greater potency, the high end for weaker potency. As to `COc1cc(C[C@H]2C(=O)OC[C@@H]2Cc2ccc(OC)c(OC)c2)ccc1O` [ARCG, arctigenin], the IC50 was found to be 3.29 µM.
